Patent publication US20250340939A1 (priority 2021, published 2025)
Entries after “also recorded” stand apart in the source; their conditions may differ. Like-named read-outs stand apart in the source and are kept apart here.

Columns and labels:
Type in all cases: binding
16S rRNA (E. coli) = assay: MST of Cy5 probes hybridized with total bacterial RNA; details: 100 μM Dox, red mode
Experimental: For bacterial RNA extraction, DH5α E. coli cells transfected with pcDNA3.1+ plasmid were grown overnight in LB medium containing 100 μg/ml ampicillin. The concentration of bacterial cells was determined according to OD at 600 nm, and ˜7·10^8 cells were taken for RNA extraction. 1 volume of bacterial culture was mixed with 2 volumes of RNAprotect® Bacteria Reagent (QIAGEN), vortexed for 5 seconds and incubated for 5 minutes at room temperature. The sample was then centrifuged for 10 minutes at 5,000×g at room temperature. After discarding supernatant, the pellet was resuspended in 100 μl TE buffer (10 mM Tris-HCl, 1 mM EDTA, pH 8) containing 1 mg/ml lysozyme. The samples were vortexed for 5 seconds, and then incubated at room temperature for 10 minutes with vortexing every 2 minutes. 1 ml TRIzol™ reagent was added to the sample. The sample was incubated at room temperature for 5 minutes, and then RNA extraction was performed as described hereinabove.
(§1) RNA was extracted from a sample, and after extraction, the RNA pellet was solubilized and hybridized with a specific fluorescently labeled DNA probe in a hybridization solution (as schematically depicted in FIG. 1). After hybridization, the hybridized sample was loaded into an MST capillary and inserted into a Monolith™ MST instrument (NanoTemper Technologies GmbH, Germany). This instrument included a blue mode (493 nm excitation, […]) and red mode ([…], 670 nm emission) for detection, and an I.R laser (1475 nm+/−15 nm) for heating. The intensities for both fluorescence detection (LED) and IR laser are adjustable, in a range of 0%-100%, wherein the temperature gradient generated has a temperature difference of up to about 2-8° C. Thermophoretic force was induced by infrared laser after 1 second, and maintained for 2 seconds, for a total of a 3 second measurement window (measurement time may optionally be further reduced to 2 seconds using current available MST instruments).
For RNA titration measurements, the extracted RNA solution was diluted to X2 and a serial dilution was prepared in water. Hybridization solutions were prepared as described herein, were X1 solution consisted of SSC buffer X1, 0.05% TWEEN™ 20 surfactant, and 1% formamide unless indicated otherwise. Fluorescently labeled probes were diluted from a 100 μM stock to 1:2400 in hybridization solution X2, denatured for 5 minutes at 100° C. and then incubated on ice for 5 minutes. If a mixture of uniformly labeled probes was prepared, the probes were diluted to a 1:1200 dilution in water and then diluted to 1:2400 with hybridization solution X4 (1:1/number of probes) to create equal molarity of the fluorescent dye. The probe solution was combined with the titration series in a 1:1 (v/v) ratio (10 μL total volume) and allowed to hybridize at a defined temperature for a given time as described. If post-hybridization with intercalating agents (ICA), doxorubicin or Midori™ Green, was performed, the samples were combined with ICA X5 solution 4:1 (v:v) ratio, 8 μL and 2 μL respectively. For cell based measurements, after extraction, the RNA pellet was solubilized and hybridized with a specific fluorescently labeled DNA probe in a hybridization solution (as schematically depicted in FIG. 1).
In order to determine the optimal hybridization temperature, one of the designed probes (16S1^Cy5) was incubated with increasing concentrations of bacterial RNA at different temperatures for 10 minutes. MST measurements were then performed using the red wavelength acquisition mode.
In order to assess the effect of human RNA presence and Dox post-hybridization on signal response, 16S1^Cy5 was incubated with increasing concentrations of bacterial or human total RNA at 71° C. for 2 hours. Equal amounts were then taken for post-hybridization incubation with Dox or hybridization buffer as a control. […]

S-gene RNA (SARS-CoV2) = details: for dependence of thermophoretic signal on S-gene RNA concentration / direction of thermophoretic flux: in the presence of 100 μM Dox; for dependence of thermophoretic/fluorescent signal on S-gene RNA concentration: no intercalating agent, red wavelength acquisition mode; for direction of thermophoretic flux: increasing S-gene; for ΔFnorm (signal response): FIG. 37
S-HA gene = assay: MST of probes with artificial S-HA gene RNA (target length effect)
HA gene (H1N1 influenza) = tested on: HA gene (H1N1 influenza)
control RNA = assay: MST of probes incubated with control RNA (specificity); details: in the presence of 100 μM Dox; red mode
18S rRNA (human) = assay: MST of probe hybridized with human RNA extracted from HEK 293T cells
Text: as §1
For RNA titration measurements, the extracted RNA solution was diluted to X2 and a serial dilution was prepared in water. Hybridization solutions were prepared as described herein, were X1 solution consisted of SSC buffer X1, 0.05% TWEEN™ 20 surfactant, and 1% formamide unless indicated otherwise. Fluorescently labeled probes were diluted from a 100 μM stock to 1:2400 in hybridization solution X2, denatured for 5 minutes at 100° C. and then incubated on ice for 5 minutes. […]
As depicted in FIG. 3, fluorescent signals were quantified in the 1 second before application of a temperature gradient (Fcold) and between 1 and 2 seconds after application of the temperature gradient (Fhot). […]
As the probes are tagged with different florescent dyes, 18S^ATTO488 can be used as a control for the RNA extraction process. […] The signals of 18S^ATTO488 were measured using a blue wavelength acquisition mode and S^Cy5 using a red wavelength acquisition mode. […]

16S4^Cy5: Cy5-labeled 36 nucleotide DNA probe (SEQ ID NO: 12) complementary to E. coli 16S rRNA (DNA GGCAGTCTCCTTTGAGTTCCCGGCCGGACCGCTGGC; DNA, backbone not given here; Cy5 dye label)
direction of thermophoretic migration (MST curves) (16S rRNA (E. coli)): A similar effect was observed

SN^Cy5: Cy5-tagged 22 nucleotide "non-binding" DNA probe (SEQ ID NO: 4), negative control (DNA CACCATTAGTGGGTTGGAAACC; DNA, backbone not given here; Cy5 dye label)
dependence of thermophoretic signal on S-gene RNA concentration (S-gene RNA (SARS-CoV2); red mode): not affected by RNA concentration | dependence of thermophoretic/fluorescent signal on S-gene RNA concentration (S-gene RNA (SARS-CoV2)): exhibits no change in MST signal; also recorded: no dependence; also recorded: did not generated dose-dependent signals

SE^Cy5: Cy5-tagged 22 nucleotide DNA probe (SEQ ID NO: 3) designed to bind at the edge of the S-gene (DNA CAATATCACCAAGGCAATCACC; DNA, backbone not given here; Cy5 dye label)
direction of thermophoretic flux (S-gene RNA (SARS-CoV2); red mode): directed away from the heating zone | ΔFnorm (signal response) (S-gene RNA (SARS-CoV2); no Dox): 54.41 ‰ | dependence of thermophoretic/fluorescent signal on S-gene RNA concentration (S-gene RNA (SARS-CoV2)): exhibited a thermophoretic signal dependent on S-gene RNA concentration | maximum signal response, S-gene vs S-HA gene (S-HA gene; red mode, FIG. 55): considerably stronger in the presence of S-gene than in the presence of S-HA

S^Cy5: 33 base DNA (SEQ ID NO: 2) tagged with red dye Cy5, binds the middle of SARS-CoV2 S-gene RNA (DNA GGATTGACTAGCTACACTACGTGCCCGCCGAGG; DNA, backbone not given here; Cy5 dye label)
average maximum ΔFnorm (S-gene RNA (SARS-CoV2)): 547.1 ‰ | selectivity of signal response to target RNA (S-gene RNA (SARS-CoV2)): selective signal responses to their target RNA | direction of thermophoretic flux (S-gene RNA (SARS-CoV2); red mode): towards the heating zone | dependence of thermophoretic signal on S-gene RNA concentration (S-gene RNA (SARS-CoV2); red mode): altered by S-gene RNA in a dose-dependent manner | Z′-factor (S-gene RNA (SARS-CoV2); maximum signal response with S-gene compared to no RNA control): 0.85 | concomitant detection of S-gene in presence of human extracted RNA (S-gene RNA (SARS-CoV2); mixed with 18S^ATTO488, hybridization at 42° C. for 30 minutes): effective and quantitative | ΔFnorm (signal response) (S-gene RNA (SARS-CoV2); no Dox): 110.63 ‰ | average maximum ΔFnorm (S-gene RNA (SARS-CoV2); no Dox, red mode): 116.5 ‰ | dependence of thermophoretic/fluorescent signal on S-gene RNA concentration (S-gene RNA (SARS-CoV2)): dependent on the dose of complementary RNA; also recorded: exhibited a thermophoretic signal dependent on S-gene RNA concentration | signal response to HA-gene (off-target) (HA gene (H1N1 influenza); red mode, data not shown): no response in signal was observed | effect of control RNA on probe signal (control RNA): no effect | sensitivity (slope at low RNA levels), S-HA-gene vs S-gene (S-HA gene): considerably greater sensitivity than towards S-gene | affinity towards S-HA gene compared with S-gene (S-HA gene; red mode, FIG. 55): higher affinity towards S-HA gene than to S-gene | maximum signal response, S-gene vs S-HA gene (S-HA gene; red mode, FIG. 55): did not differ

16S2^Cy5: Cy5-labeled 44 nucleotide DNA probe (SEQ ID NO: 10) complementary to E. coli 16S rRNA (DNA GCGGCCGTACTCCCCAGGCGGTCGACTTAACGCGTTAGCTCCGG; DNA, backbone not given here; Cy5 dye label)
direction of thermophoretic migration (MST curves) (16S rRNA (E. coli)): migrated towards the heating zone both in the presence of bacterial RNA

16S7^Cy5: Cy5-labeled 45 nucleotide DNA probe (SEQ ID NO: 15) complementary to E. coli 16S rRNA (DNA CCCCCTCCATCAGGCAGTTTCCCAGACATTACTCACCCGTCCGCC; DNA, backbone not given here; Cy5 dye label)
direction of thermophoretic migration (MST curves) (16S rRNA (E. coli)): migrated towards the heating zone in the presence of increasing concentrations of bacterial RNA, but away from the heating zone in the absence of bacterial RNA | sensitivity to target RNA concentration (linear regression slope) (16S rRNA (E. coli); single probes, 10 minutes hybridization): significantly more sensitive to target RNA concentration than the other tested probes

18S^ATTO488: probe with SEQ ID NO: 6 tagged with blue fluorescent dye ATTO 488, targets human 18S rRNA (DNA AGGGGCTGACCGGGTTGGTTTTGATCTGATAAATGCACGCATCCCC; ATTO 488 label; misc_feature 1..46 ATTO488 labeled; DNA sequence complementary to nucleotides 205-250 of SEQ ID NO: 5)
selectivity of signal response to target RNA (18S rRNA (human); 100 ng/μl HEK 293T RNA vs 400 ng/μl S-gene, 400 ng/μl control RNA or no RNA, blue mode): selective signal responses to their target RNA | dependence of fluorescent signal on complementary RNA dose (18S rRNA (human); RNA extracted from HEK 293T cells, blue mode): dependent on the dose of complementary RNA | concomitant detection of 18S rRNA in human extracted RNA (18S rRNA (human); mixed with S^Cy5, hybridization at 42° C. for 30 minutes): effective and quantitative

HA^ATTO488: DNA having SEQ ID NO: 8 tagged with blue fluorescent dye ATTO 488, targets H1N1 HA-gene (DNA TGAAGCCGGCAATGGCCCCGAATAGGCCTCTAG; ATTO 488 label; misc_feature 1..33 DNA sequence complementary to nucleotides 567-599 of SEQ ID NO: 7 (nucleotides 1048-1080 of Influenza A H1N1 HA gene; ATTO488 labeled)
dependence of signal on S-gene concentration (off-target) (S-gene RNA (SARS-CoV2); SSC X1, 10% (v/v) formamide, blue mode): not on the concentration of S-gene or control RNA | effect of higher saline sodium citrate buffer concentration on detection sensitivity (HA gene (H1N1 influenza); SSC X1, X2, X4, blue mode): increased detection sensitivity | dependence of signal on HA-gene concentration (HA gene (H1N1 influenza); blue mode): dose-dependent signal; also recorded: dependent on the concentration of HA-gene
